target: T1, human Cereblon WT GST-tagged protein (Homo sapiens, UniProt Q96SW2); assay: CRBN binding, HTRF CEREBLON BINDING kit; conditions: not given
T1 construct: purchased CISBIO 64BDCRBNPEH
Description: The CEREBLON BINDING kits (specification: 10,000 tests; product number: Catalog #64BDCRBNPEH; CISBIO company) was used to determine the CRBN binding ability of the compounds to be tested through a HTRF method (homogeneous time-resolved fluorescence). The specific methods are as follows: • 1. […] Then, 2.5 μL of human Cereblon WT GST-tagged protein solution was added to each well. Finally, 5 μL of the thoroughly mixed Thalidomide-Re reagent and GST Eu antibody working solution were added to each of the aforementioned wells. […] The blank control wells were sequentially added with 2.5 μL of diluent #9 (1×) solution, 2.5 μL of binding buffer, and 5 μL of thoroughly mixed Thalidomide-Re reagent and GST Eu antibody working solution. • 4. After sealing and incubating the solutions in the aforementioned wells at room temperature for 3 hours, the absorbance values at emission wavelengths of 620 nm and 665 nm were detected by the HTRF method using a Spark microplate reader (V3.1 SP1).
The corresponding CRBN binding inhibition rate was calculated using the following method:
[formula] [formula] [formula] • Note: OD 665 nmcompound is the absorbance value of each well of the compounds to be tested of the present disclosure at an emission wavelength of 665 nm. • OD 620 nmcompound is the absorbance value of each well of the compounds to be tested of the present disclosure at an emission wavelength of 620 nm. • OD 665 nmcontrol is the absorbance value of the blank control well at an emission wavelength of 665 nm. • OD 620 nmcontrol is the absorbance value of the blank control well at an emission wavelength of 620 nm. • OD 665 nmStd0 is the absorbance value of the solvent control well at an emission wavelength of 665 nm. • OD 620 nmStd0 is the absorbance value of the solvent control well at an emission wavelength of 620 nm.

T1 sequence (Q96SW2 whole entry): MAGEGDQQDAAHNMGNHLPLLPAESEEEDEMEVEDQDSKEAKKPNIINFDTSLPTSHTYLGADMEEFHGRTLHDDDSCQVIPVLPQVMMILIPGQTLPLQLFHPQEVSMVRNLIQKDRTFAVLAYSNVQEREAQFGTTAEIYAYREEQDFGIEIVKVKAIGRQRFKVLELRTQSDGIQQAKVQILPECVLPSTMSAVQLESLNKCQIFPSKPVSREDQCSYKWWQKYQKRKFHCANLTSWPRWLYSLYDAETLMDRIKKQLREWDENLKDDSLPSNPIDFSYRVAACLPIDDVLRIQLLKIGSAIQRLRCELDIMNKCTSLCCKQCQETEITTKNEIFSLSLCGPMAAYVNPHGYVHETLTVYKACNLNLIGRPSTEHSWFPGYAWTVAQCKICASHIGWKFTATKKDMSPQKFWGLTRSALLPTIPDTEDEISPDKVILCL

Structure (SMILES)	IC50
C=CC(=O)Nc1cc(Nc2nccc(-c3cn(C)c4ccccc34)n2)c(OC)cc1N(C)CCN(C)C [osimertinib, reference compound]	> 10000 nM

same assay, conditions: CRBN binding, HTRF CEREBLON BINDING kit

Structure (SMILES)	IC50
COc1cc(N2CCC(N(C)Cc3cncc(C4CCC(=O)NC4=O)c3)CC2)ccc1Nc1ncc(Cl)c(Nc2ccccc2P(C)(C)=O)n1 (stereo not drawn) [GT-07699, 3-(5-(((1-(4-((5-chloro-4-((2-(dimethylphosphoryl)phenyl)amino)pyrimidin-2-yl)amino)-3-methoxyphenyl)piperidin-4-yl)(methyl)amino)methyl)pyridin-3-yl)piperidine-2,6-dione]	500 to 1000 nM
COC1CCN(c2nccc(Nc3cc4c(cn3)c(N3CCN(Cc5ccc(C6CCC(=O)NC6=O)cc5)CC3)nn4C(C)C)n2)CC1 (stereo not drawn) [GT-06036, 3-(4-((4-(1-isopropyl-6-((2-(4-methoxypiperidin-1-yl)pyrimidin-4-yl)amino)-1H-pyrazolo[4,3-c]pyridin-3-yl)piperazin-1-yl)methyl)phenyl)piperidine-2,6-dione]	1000 to 1900 nM
COc1cc2nn(C3CCN(Cc4cccc(NC5CCC(=O)NC5=O)c4)CC3)cc2cc1NC(=O)c1cccc(C(F)(F)F)c1 (stereo not drawn) [GT-04749, N-(2-(1-(3-((2,6-dioxopiperidin-3-yl)amino)benzyl)piperidin-4-yl)-6-methoxy-2H-indazol-5-yl)-3-(trifluoromethyl)benzamide]	1000 to 1900 nM
O=C1CCN(c2ccc(CN3CCN(c4ccc(Nc5ncc6nc(Nc7ccccc7)n(C7CCCC7)c6n5)cc4)CC3)nc2)C(=O)N1 [GT-05839, 1-(6-((4-(4-((9-cyclopentyl-8-(phenylamino)-9H-purin-2-yl)amino)phenyl)piperazin-1-yl)methyl)pyridin-3-yl)dihydropyrimidine-2,4(1H,3H)-dione]	500 to 1000 nM
O=C1CCN(c2ccc(CN3CCN(C4CCN(c5ccc(Nc6ncc7nc(Nc8ccccc8)n(C8CCCC8)c7n6)cc5)CC4)CC3)cc2)C(=O)N1 [GT-05917, 1-(4-((4-(1-(4-((9-cyclopentyl-8-(phenylamino)-9H-purin-2-yl)amino)phenyl)piperidin-4-yl)piperazin-1-yl)methyl)phenyl)dihydropyrimidine-2,4(1H,3H)-dione]	500 to 1000 nM
O=C1CCN(c2cccc(CN3CCC(n4cc(NC(=O)c5cnn6ccc(N7C[C@H]8C[C@@H]7CO8)nc56)c(C(F)F)n4)CC3)c2)C(=O)N1 [GT-05051, 5-((1R,4R)-2-oxa-5-azabicyclo[2.2.1]heptan-5-yl)-N-(3-(difluoromethyl)-1-(1-(3-(2,4-dioxotetrahydropyrimidin-1(2H)-yl)benzyl)piperidin-4-yl)-1H-pyrazol-4-yl)pyrazolo[1,5-a]pyrimidine-3-carboxamide]	500 to 1000 nM
Cc1ccc(-c2c(C)noc2C)cc1N(CC1CCN(Cc2cccc(N3CCC(=O)NC3=O)c2)CC1)c1ccc(C2(C#N)CC2)cc1 [GT-04842, 1-(4-((5-(3,5-dimethylisoxazol-4-yl)-2-methylphenyl)((1-(3-(2,4-dioxotetrahydropyrimidin-1(2H)-yl)benzyl)piperidin-4-yl)methyl)amino)phenyl)cyclopropane-1-carbonitrile]	1000 to 1900 nM
O=C1CCN(c2cccc(CN3CCC(N4CCN(c5ccc6c(c5)nc(NC(=O)c5cccc(C(F)(F)F)c5)n6[C@H]5CC[C@@H](CO)CC5)CC4)CC3)c2)C(=O)N1 [GT-05022, N-(5-(4-(1-(3-(2,4-dioxotetrahydropyrimidin-1(2H)-yl)benzyl)piperidin-4-yl)piperazin-1-yl)-1-((1s,4s)-4-(hydroxymethyl)cyclohexyl)-1H-benzo[d]imidazol-2-yl)-3-(trifluoromethyl)benzamide]	1000 to 1900 nM
COc1cc(N2CCN(Cc3ccc(N4CCC(=O)NC4=O)c(F)c3)CC2)ccc1Nc1ncc(Cl)c(Nc2ccccc2P(C)(C)=O)n1 [GT-07346, 1-(4-((4-(4-((5-chloro-4-((2-(dimethylphosphoryl)phenyl)amino)pyrimidin-2-yl)amino)-3-methoxyphenyl)piperazin-1-yl)methyl)-2-fluorophenyl)dihydropyrimidine-2,4(1H,3H)-dione]	1000 to 1900 nM
NC(=O)c1ncc(N2CCCCC2)nc1Nc1ccc(C2CCN(Cc3cccc(NC4CCC(=O)NC4=O)c3)CC2)cc1 (stereo not drawn) [GT-04791, 3-((4-(1-(3-((2,6-dioxopiperidin-3-yl)amino)benzyl)piperidin-4-yl)phenyl)amino)-5-(piperidin-1-yl)pyrazine-2-carboxamide]	500 to 1000 nM

The next lines start with the values.

IC50	Structure (SMILES)
500 to 1000 nM	COc1ccc2cn(C3CCN(Cc4ccc(C5CCC(=O)NC5=O)c(F)c4)CC3)nc2c1NC(=O)c1cccc(C(F)(F)F)c1 (stereo not drawn) [GT-04814, N-(2-(1-(4-(2,6-dioxopiperidin-3-yl)-3-fluorobenzyl)piperidin-4-yl)-6-methoxy-2H-indazol-7-yl)-3-(trifluoromethyl)benzamide]
< 500 nM	O=C1CCN(c2cc(CN3CCN(c4ccc(-c5cc(F)c6c(c5)C(=O)N(C(C(=O)Nc5nccs5)c5ncn7c5CCC7)C6)cc4)CC3)ccn2)C(=O)N1 (stereo not drawn) [GT-07379, 2-(6,7-dihydro-5H-pyrrolo[1,2-c]imidazol-1-yl)-2-(6-(4-(4-((2-(2,4-dioxotetrahydropyrimidin-1(2H)-yl)pyridin-4-yl)methyl)piperazin-1-yl)phenyl)-4-fluoro-1-oxoisoindolin-2-yl)-N-(thiazol-2-yl)acetamide]
1000 to 1900 nM	Cc1nc2c(F)cc(-c3nc(Nc4ccc(N5CCC(N(C)Cc6cccc(N7CCC(=O)NC7=O)c6)CC5)cn4)ncc3F)cc2n1C(C)C [GT-06839, 1-(3-(((1-(6-((5-fluoro-4-(4-fluoro-1-isopropyl-2-methyl-1H-benzo[d]imidazol-6-yl)pyrimidin-2-yl)amino)pyridin-3-yl)piperidin-4-yl)(methyl)amino)methyl)phenyl)dihydropyrimidine-2,4(1H,3H)-dione]
< 500 nM	CN(Cc1cncc(N2CCC(=O)NC2=O)c1)C1CCN(c2ccc(-c3cc(F)c4c(c3)C(=O)N(C(C(=O)Nc3nccs3)c3ncn5c3CCC5)C4)cc2)CC1 (stereo not drawn) [GT-07384, 2-(6,7-dihydro-5H-pyrrolo[1,2-c]imidazol-1-yl)-2-(6-(4-(4-(((5-(2,4-dioxotetrahydropyrimidin-1(2H)-yl)pyridin-3-yl)methyl)(methyl)amino)piperidin-1-yl)phenyl)-4-fluoro-1-oxoisoindolin-2-yl)-N-(thiazol-2-yl)acetamide]
1000 to 1900 nM	O=C1CCC(c2ccc(CN3CCN(C4CCN(c5ccc(-c6cc(F)c7c(c6)C(=O)N(C(C(=O)Nc6nccs6)c6ncn8c6CCC8)C7)cc5)CC4(F)F)CC3)cc2)C(=O)N1 (stereo not drawn) [GT-06317, 2-(6,7-dihydro-5H-pyrrolo[1,2-c]imidazol-1-yl)-2-(6-(4-(4-(4-(4-(2,6-dioxopiperidin-3-yl)benzyl)piperazin-1-yl)-3,3-difluoropiperidin-1-yl)phenyl)-4-fluoro-1-oxoisoindolin-2-yl)-N-(thiazol-2-yl)acetamide]
500 to 1000 nM	COc1cc2nn(C3CCN(Cc4ccc(C5CCC(=O)NC5=O)cc4)CC3)cc2cc1NC(=O)c1cccc(C(F)(F)F)c1 (stereo not drawn) [GT-04747, N-(2-(1-(4-(2,6-dioxopiperidin-3-yl)benzyl)piperidin-4-yl)-6-methoxy-2H-indazol-5-yl)-3-(trifluoromethyl)benzamide]
< 500 nM	O=C1CCC(c2ccc(CN3C[C@H]4C[C@@H]3CN4c3ccc(-c4cc(F)c5c(c4)C(=O)N(C(C(=O)Nc4nccs4)c4ncn6c4CCC6)C5)cc3)nc2)C(=O)N1 (stereo partly drawn) [GT-07389, 2-(6,7-dihydro-5H-pyrrolo[1,2-c]imidazol-1-yl)-2-(6-(4-((1R,4R)-5-((5-(2,6-dioxopiperidin-3-yl)pyridin-2-yl)methyl)-2,5-diazabicyclo[2.2.1]heptan-2-yl)phenyl)-4-fluoro-1-oxoisoindolin-2-yl)-N-(thiazol-2-yl)acetamide]
500 to 1000 nM	O=C1CCN(c2ccc(CN3C[C@@H]4C[C@H]3CN4c3ccc(-c4cc(F)c5c(c4)C(=O)N(C(C(=O)Nc4nccs4)c4ncn6c4CCC6)C5)cc3)nc2)C(=O)N1 (stereo partly drawn) [GT-05119, 2-(6,7-dihydro-5H-pyrrolo[1,2-c]imidazol-1-yl)-2-(6-(4-((1S,4S)-5-((5-(2,4-dioxotetrahydropyrimidin-1(2H)-yl)pyridin-2-yl)methyl)-2,5-diazabicyclo[2.2.1]heptan-2-yl)phenyl)-4-fluoro-1-oxoisoindolin-2-yl)-N-(thiazol-2-yl)acetamide]
< 500 nM	O=C1CCC(c2cncc(CN3CCN(c4ccc(-c5cc(F)c6c(c5)C(=O)N(C(C(=O)Nc5nccs5)c5ncn7c5CCC7)C6)cc4)CC3)c2)C(=O)N1 (stereo not drawn) [GT-07472, 2-(6,7-dihydro-5H-pyrrolo[1,2-c]imidazol-1-yl)-2-(6-(4-(4-((5-(2,6-dioxopiperidin-3-yl)pyridin-3-yl)methyl)piperazin-1-yl)phenyl)-4-fluoro-1-oxoisoindolin-2-yl)-N-(thiazol-2-yl)acetamide]
1000 to 1900 nM	O=C1CCC(c2ccc(CN3CCN(Cc4ccc5c(c4)nc(NC(=O)c4cccc(C(F)(F)F)c4)n5[C@H]4CC[C@@H](CO)CC4)CC3)cc2)C(=O)N1 (stereo partly drawn) [GT-04978, N-(5-((4-(4-(2,6-dioxopiperidin-3-yl)benzyl)piperazin-1-yl)methyl)-1-((1s,4s)-4-(hydroxymethyl)cyclohexyl)-1H-benzo[d]imidazol-2-yl)-3-(trifluoromethyl)benzamide]

From patent US20260274829A1, “NEW E3 UBIQUITIN LIGASE LIGAND, PROTEIN DEGRADATION AGENT AND USE THEREOF” (GLUETACS THERAPEUTICS (SHANGHAI) CO., LTD., priority 2023, published 2026)
